Laboratory results published in publication PMC6895048, “4,5-Disubstituted 1,2,3-triazoles: Effective Inhibition of Indoleamine 2,3-Dioxygenase 1 Enzyme Regulates T cell Activity and Mitigates Tumor Growth” (Scientific Reports, 2019).

Experiments:
[1] = target: T1, purified human IDO1 enzyme (Homo sapiens, UniProt P14902); assay: IDO1 inhibition assay by the spectrometric method (pDMAB); assay type: biochemical; conditions: for IC50: purified human IDO1, spectrophotometric, mean of three independent assays, read-out: hIDO1 IC50; for fold stronger IDO1 inhibition than MMG-0358: similar experimental conditions
T1 construct: made in house; host or cells: Escherichia coli M15 (pQE30 vector with pREP4 plasmid)
Method in brief: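 Inhibitors serially diluted from 100 µM to 32 nM, DMSO 0.02–2%. Reaction quenched with 30% (w/v) TCA and held 15 min at 65 °C. Kynurenine formed was detected with 2% (w/v) pDMAB by absorbance at 480 nm.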

[2] = target: T2, IDO1 enzyme (ferric and deoxy-ferrous) (Homo sapiens, UniProt P14902); assay: Binding analysis by UV-Vis spectroscopic measurement; conditions: for Soret band red-shift: both ferric-IDO1 and deoxy-ferrous-IDO1; for Q-band shift: deoxy-ferrous-IDO1, Q-band at 551 nm for only enzyme
T2 construct: made in house; host or cells: Escherichia coli M15 (pQE30 vector with pREP4 plasmid)
Method: Figure 4 Binding properties of the potent compounds. Absorption spectra of ferric-IDO1 (A) and deoxy-ferrous-IDO1 enzyme (B) in the absence and presence of the compounds (20 μM) in 100 mM phosphate buffer at pH 6.5. [IDO1] = 0.65 μM. The ferrous-deoxy reaction environment was generated by adding Na2S2O4 to the solution under N2 atmosphere. The binding isotherms were generated from the response unit (RU) at 60 sec (average of triplicate measurements) versus the concentration of the compounds. A solid line represents a theoretical curve constructed from Rmax and Kd values determined by nonlinear least-squares analysis of the isotherms (C). 20 mm HEPES buffer, pH 7.4, with 0.16 m KCl was used for all SPR measurements. […] The model structures were generated using MoleGro Virtual Docker, version 6.0. The oxygen and nitrogen atoms are shown in red and blue, respectively. Residues involved in interactions through hydrogen bond formation are shown using dashed lines (yellow). Images were generated using PyMol.
The efficacy of the compound’s direct binding to the enzyme active site was measured by UV-Vis spectroscopic analysis[26]–[28],[30]. All the measurements were performed at room temperature using 100 mM KPB (pH 6.5), purified hIDO1 enzyme (3 µM), and selected compounds (20 µM. The deoxy-reaction system was generated by injecting Na2S2O4 (~10-fold excess) into the solution pre-purged with N2 gas.

TDO enzyme = target: T3, TDO enzyme (Homo sapiens, UniProt P48775); assay: HPLC based TDO inhibition assay; assay type: biochemical
T3 construct: 6xHis (N); made in house; host or cells: Escherichia coli BL21 (DE3) (pET 28a vector)
Method: HPLC based IDO1, and TDO inhibition assays were performed according to the earlier reported procedure[19],[27]–[30]. The reaction mixture (250 µL) contained KPB (100 mM, pH 6.5 for IDO1 and 50 mM, pH 8.0 for TDO), sodium ascorbate (20 mM), methylene blue (10 µM), catalase (240 nM, from bovine liver, Sigma), L-Trp (150 µM), purified enzyme (40 nM for IDO1 and 25 nM for TDO), DMSO (0.05%, v/v), Triton-X 100 (0.01%, v/v) and inhibitors. The concentration of the compound was varied from 100 µM to 32 nM by serial dilution. The mixture was incubated at 37 °C for 1 hour in the absence and presence of the synthesized compounds. The reaction was then quenched using 50 µL of 30% (w/v) trichloroacetic acid and incubated at 65 °C for additional 15 minutes to allow complete hydrolysis of N-formylkynurenine to kynurenine. After that, the mixture was centrifuged at 10,000 rpm for 10 minutes, and 100 µL of clear solution was transferred to another tube for HPLC analysis. Then, 20 µL of the reaction mixture was then injected through Ascentis® express C18, 2.7 µm HPLC column with a flow rate of 0.5 mL/minute of the mobile phase containing 50% sodium citrate buffer (40 mM, pH 2.25) and 50% methanol (v/v) with 400 µM SDS. The area under the curve at 365 nm chromatogram corresponding to the kynurenine formation was recorded, and % of inhibition was calculated using standard curve prepared with pure kynurenine (from Sigma) under similar experimental conditions.

IDO1 [3] = target: T4, IDO1 (Homo sapiens, UniProt P14902); assay: Determination of mode of enzyme inhibition (Lineweaver-Burk); assay type: biochemical; parameters: made in house; host or cells: Escherichia coli M15 (pQE30 vector with pREP4 plasmid); conditions: for Ki: Km = 59.76 µM and Kcat = 6.18 sec-1; for Mode of IDO1 inhibition: with respect to L-Trp
Method: The mode of IDO1 enzyme inhibition was measured according to the reported spectrophotometric method. The assay was performed by varying both tryptophan concentration from 50 to 150 µM and inhibitor concentration from 32 nM to 4 µM. The amount of formation of N-formylkynurenine was recorded at different time intervals. The mode of enzyme inhibition was determined from the plot of 1/V against 1/[S], where V is the initial rate of the enzymatic reaction and [S] is the L-Trp concentration.

IDO1 [4] = target: T4, IDO1; assay: Cellular IDO1 activity assay in IFN-γ induced MDA-MB-231 cells; assay type: cell-based; parameters: induce the expression of the native IDO1 enzyme from its mRNA in the MDA-MB-231 cells; endogenous in cells; host or cells: MDA-MB-231 cells induced with human IFN-γ (50 ng/mL); conditions: IDO1 expression induced by human IFN-γ (50 ng/mL); mean of three
Method: The cellular enzyme activity assay was performed according to the reported procedure with minor modifications[19],[27]–[30],[33],[54]. Briefly, MDA-MB-231 breast cancer cells were selected for this assay because of the presence of IDO1 mRNA in this cell line. First, cells were grown in DMEM/F12 complete media overnight. Then different concentration of human interferon-gamma (IFN-γ) (from 5–1000 ng/mL) was added to it and incubated for 48 hours. This treatment is reported to allow over-expression of IDO1 enzyme in MDA-MB-231 cells. […] Sterile cell-culture grade PBS was used to wash the cells by centrifugation technique. Then, the pellet was lysed in 10 mM HEPES buffer by passing through a sterile syringe. The lysate was used for standard IDO1 assay as mentioned earlier. The relative amount of N-formylkynurenine generated in the presence of the different concentration of IFN-γ was used to optimize the required concentration of IFN-γ for the IDO1 inhibition assay. […] Cells stimulated with IFN-γ alone were used as negative control, while cells stimulated with L-Trp without compound served as positive control. The cells were washed with sterile cell culture grade PBS and lysed in 10 mM HEPES buffer by sterile syringe. The lysate was used for standard IDO1 assay, as mentioned earlier, and the extent of IDO1 enzyme inhibition was determined for the selected compounds.

T3 sequence (P48775 whole entry): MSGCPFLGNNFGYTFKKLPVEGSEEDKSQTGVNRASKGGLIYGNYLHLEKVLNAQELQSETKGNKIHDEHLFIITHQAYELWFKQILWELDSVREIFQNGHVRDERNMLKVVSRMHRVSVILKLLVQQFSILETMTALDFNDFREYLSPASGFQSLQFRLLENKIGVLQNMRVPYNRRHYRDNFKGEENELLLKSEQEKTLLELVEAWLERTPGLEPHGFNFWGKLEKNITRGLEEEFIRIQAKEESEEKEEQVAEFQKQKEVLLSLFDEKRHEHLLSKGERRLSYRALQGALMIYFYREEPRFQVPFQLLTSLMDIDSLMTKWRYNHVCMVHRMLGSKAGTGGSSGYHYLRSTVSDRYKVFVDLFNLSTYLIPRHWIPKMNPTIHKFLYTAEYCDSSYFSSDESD
T2 sequence (P14902 whole entry): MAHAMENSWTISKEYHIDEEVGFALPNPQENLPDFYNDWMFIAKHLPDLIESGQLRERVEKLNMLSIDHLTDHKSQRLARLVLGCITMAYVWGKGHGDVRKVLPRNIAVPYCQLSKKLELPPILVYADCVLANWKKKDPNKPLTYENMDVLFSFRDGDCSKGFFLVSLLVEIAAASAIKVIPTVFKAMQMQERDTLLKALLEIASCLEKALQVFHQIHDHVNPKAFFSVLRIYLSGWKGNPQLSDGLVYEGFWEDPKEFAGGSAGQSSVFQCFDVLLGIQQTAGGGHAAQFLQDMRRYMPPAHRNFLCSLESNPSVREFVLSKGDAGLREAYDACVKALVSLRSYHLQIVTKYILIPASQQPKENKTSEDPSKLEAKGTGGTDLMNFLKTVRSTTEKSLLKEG
T1 sequence (P14902 whole entry): as above
T4 sequence (P14902 whole entry): as above

IC50 [1]	fold stronger IDO1 inhibition than MMG-0358 [1]	Soret band red-shift [2]	Q-band shift [2]	Ki (IDO1 [3])	Mode of IDO1 inhibition (IDO1 [3])	EC50 (IDO1 [4])	% Of inhibition for TDO enzyme (TDO enzyme; 32 nM)	% Of inhibition for TDO enzyme (TDO enzyme; 160 nM)	% Of inhibition for TDO enzyme (TDO enzyme; 800 nM)	% Of inhibition for TDO enzyme (TDO enzyme; 4 µM)	% Of inhibition for TDO enzyme (TDO enzyme; 20 µM)	% Of inhibition for TDO enzyme (TDO enzyme; 100 µM)	SMILES	other results
92 ± 12 nM	3 fold	5–8 nm	10–13 nm	98 ± 11 nM	competitive	77 ± 5 nM	–	–	–	–	–	–	NS(=O)(=O)NCCNC(=O)c1n[nH]nc1-c1ccc(F)c(F)c1 [Compound 4k]	inhibition at 4 µM ([1]; 4 μM compound): 71 to 86%; inhibition at 100 µM ([1]; 100 μM compound): 82 to 93%; inhibition at 0.032 µM (TDO enzyme; 32 nM): 13%; inhibition at 0.16 µM (TDO enzyme; 160 nM): 24%; inhibition at 0.8 µM (TDO enzyme; 800 nM): 46%; inhibition at 4 µM (TDO enzyme; 4 µM): 58%; inhibition at 20 µM (TDO enzyme; 20 µM): 63%; inhibition at 100 µM (TDO enzyme; 100 µM): 68%
545 ± 29 nM	–	5–8 nm	10–13 nm	241 ± 38 nM	competitive	162 ± 15 nM	34%	47%	49%	65%	63%	83%	CCOC(=O)c1n[nH]nc1-c1ccc(F)c(F)c1 [Compound 2i]	–
94 ± 4 nM	–	5–8 nm	10–13 nm	258 ± 22 nM	competitive	88 ± 10 nM	15%	25%	26%	50%	66%	73%	O=C(N/C(Cc1ccc(O)cc1)=N\O)c1n[nH]nc1-c1ccc(F)c(F)c1 [Compound 4i]	–
111 ± 5 nM	3 fold	5–8 nm	10–13 nm	160 ± 15 nM	competitive	74 ± 17 nM	10%	18%	21%	18%	37%	52%	NC(=O)c1n[nH]nc1-c1ccc(F)c(F)c1 [Compound 3i]	–
